From paper PMC12851022, “Targeting the Spliceosomal Protein USP39 Through Allosteric Ligands and PROTAC‐Induced Degradation” (Angewandte Chemie (International Ed. in English), 2025)

Biological target: T1, USP39_FL (Homo sapiens, UniProt Q53GS9)
T1 construct: made in house
T1 sequence (Q53GS9 1-565): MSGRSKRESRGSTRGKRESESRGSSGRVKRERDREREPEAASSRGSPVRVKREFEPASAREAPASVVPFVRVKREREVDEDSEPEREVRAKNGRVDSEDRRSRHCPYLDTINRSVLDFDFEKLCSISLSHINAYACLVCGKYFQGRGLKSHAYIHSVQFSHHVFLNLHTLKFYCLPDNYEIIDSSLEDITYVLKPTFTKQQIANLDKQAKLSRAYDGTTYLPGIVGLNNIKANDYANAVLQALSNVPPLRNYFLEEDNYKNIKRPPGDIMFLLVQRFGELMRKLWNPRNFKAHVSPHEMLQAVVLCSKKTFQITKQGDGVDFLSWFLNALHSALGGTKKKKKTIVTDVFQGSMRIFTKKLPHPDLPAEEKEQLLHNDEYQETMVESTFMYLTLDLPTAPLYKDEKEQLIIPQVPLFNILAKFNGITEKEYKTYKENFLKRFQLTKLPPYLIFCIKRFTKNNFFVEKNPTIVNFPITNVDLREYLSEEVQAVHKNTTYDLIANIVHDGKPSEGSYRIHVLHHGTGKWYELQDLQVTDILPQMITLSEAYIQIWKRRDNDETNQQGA
Assay: Thermal shift assay (TSA) with full-length USP39
Type: binding
Excerpt: To identify potential USP39 binders, we purified full‐length USP39 protein (USP39_FL, Figure SI1B) and conducted chemical screening using two complementary strategies. First, an in‐house bioactive collection of approximately 200 small molecules, previously assembled from our studies on cellular reprogramming, was screened using thermal shift assay (TSA, Figure 1a).^[ [2], [23], [24], [25], [26] ^] […] In parallel, a DNA‐encoded library (DEL) screening comprising roughly 600 million unique small molecules was performed. Each DEL compound carries a covalently attached DNA barcode that enables identification after target binding. For this screening, purified USP39_FL protein was immobilized on magnetic beads and incubated with the library; unbound molecules were washed away, and bound DNA‐tagged compounds were eluted. […]
Figure 1 Chemical screening identified thiazole‐containing compounds as USP39 binders. a) AlphaFold3‑predicted structure of full‐length USP39 (USP39_FL) showing three domains: an N‑terminal RS‑like domain (grey), a central zinc‑finger (ZNF) domain (cyan), and a C‑terminal USP domain (gold). […] The ΔT values are therefore given under an empty label, with the protein construct written in front. / Panels b and d: the print is small, so the digits in 55.0, 57.5, -2.5, -2.0 and -1.5 are best readings. […]

- ∆T (T max_Compound − T max_USP39), USP39_FL: comparable to that induced by USP39_B1
Compound: Cc1ncsc1-c1ccc(CNC(=O)C2CC(O)CN2C(=O)C(NC(=O)CCOCCOCCOCCNC(=O)c2csc(Nc3ccc(Cl)cc3)n2)C(C)(C)C)cc1 (stereo not shown) [USP39_PROTAC_V1]
